US20230117470A1, “SUBSTITUTED PYRAZOLE COMPOUNDS AS TOLL RECEPTOR INHIBITORS” (BRISTOL-MYERS SQUIBB COMPANY, priority 2019, published 2023)

Tests used:
Type in all cases: cell-based
human TLR7 = molecular target: T1, human TLR7 (Homo sapiens, UniProt Q9NYK1); test: TLR7 inhibition reporter assay (HEK-Blue cells, SEAP reporter, gardiquimod stimulation); settings: HEK-Blue cells overexpressing human TLR7, SEAP reporter, gardiquimod 7.5 μM
T1 construct: host or cells: HEK-Blue cells
T1 sequence (Q9NYK1 27-1049): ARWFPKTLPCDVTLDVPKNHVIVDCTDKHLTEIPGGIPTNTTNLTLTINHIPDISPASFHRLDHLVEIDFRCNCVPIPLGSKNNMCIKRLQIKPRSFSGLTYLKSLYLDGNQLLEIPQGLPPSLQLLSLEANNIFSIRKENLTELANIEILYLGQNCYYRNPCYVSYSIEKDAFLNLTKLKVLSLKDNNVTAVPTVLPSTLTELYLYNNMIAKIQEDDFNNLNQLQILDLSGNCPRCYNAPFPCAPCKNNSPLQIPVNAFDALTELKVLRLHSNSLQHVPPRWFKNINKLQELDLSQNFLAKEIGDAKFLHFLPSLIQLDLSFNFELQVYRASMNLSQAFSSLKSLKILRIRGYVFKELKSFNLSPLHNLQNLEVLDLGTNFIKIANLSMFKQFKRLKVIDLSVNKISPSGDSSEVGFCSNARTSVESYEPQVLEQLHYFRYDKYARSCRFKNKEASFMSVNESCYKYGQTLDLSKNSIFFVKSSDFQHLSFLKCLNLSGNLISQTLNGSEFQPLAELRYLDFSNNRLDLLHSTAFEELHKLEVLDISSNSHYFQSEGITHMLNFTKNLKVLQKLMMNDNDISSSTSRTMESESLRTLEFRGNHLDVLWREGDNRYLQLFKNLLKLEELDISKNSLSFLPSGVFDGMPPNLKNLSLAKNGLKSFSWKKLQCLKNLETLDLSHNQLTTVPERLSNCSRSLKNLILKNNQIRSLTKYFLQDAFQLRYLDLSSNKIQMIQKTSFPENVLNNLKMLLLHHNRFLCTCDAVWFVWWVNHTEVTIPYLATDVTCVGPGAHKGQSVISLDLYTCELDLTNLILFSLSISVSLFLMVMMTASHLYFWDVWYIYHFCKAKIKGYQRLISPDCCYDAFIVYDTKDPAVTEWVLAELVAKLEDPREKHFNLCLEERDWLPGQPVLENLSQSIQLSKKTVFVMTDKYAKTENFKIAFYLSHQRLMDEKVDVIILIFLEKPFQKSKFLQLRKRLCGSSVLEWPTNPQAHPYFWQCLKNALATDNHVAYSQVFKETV
In short: (§1)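 Percent inhibition of agonist-induced SEAP, set between agonist+DMSO wells and known-inhibitor wells, after 22 h at 37° C. Compounds (0.05 nM-50 μM final) were added 30 min at room temperature before ligand: gardiquimod 7.5 μM for TLR7, R848 15.9 μM for TLR8, ODN2006 5 nM for TLR9. Human receptors overexpressed in HEK-Blue reporter cells.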

human TLR8 = molecular target: T2, human TLR8 (Homo sapiens, UniProt Q9NR97); test: TLR8 inhibition reporter assay (HEK-Blue cells, SEAP reporter, R848 stimulation); settings: HEK-Blue cells overexpressing human TLR8, SEAP reporter, R848 15.9 μM
T2 construct: host or cells: HEK-Blue cells
T2 sequence (Q9NR97 27-1041): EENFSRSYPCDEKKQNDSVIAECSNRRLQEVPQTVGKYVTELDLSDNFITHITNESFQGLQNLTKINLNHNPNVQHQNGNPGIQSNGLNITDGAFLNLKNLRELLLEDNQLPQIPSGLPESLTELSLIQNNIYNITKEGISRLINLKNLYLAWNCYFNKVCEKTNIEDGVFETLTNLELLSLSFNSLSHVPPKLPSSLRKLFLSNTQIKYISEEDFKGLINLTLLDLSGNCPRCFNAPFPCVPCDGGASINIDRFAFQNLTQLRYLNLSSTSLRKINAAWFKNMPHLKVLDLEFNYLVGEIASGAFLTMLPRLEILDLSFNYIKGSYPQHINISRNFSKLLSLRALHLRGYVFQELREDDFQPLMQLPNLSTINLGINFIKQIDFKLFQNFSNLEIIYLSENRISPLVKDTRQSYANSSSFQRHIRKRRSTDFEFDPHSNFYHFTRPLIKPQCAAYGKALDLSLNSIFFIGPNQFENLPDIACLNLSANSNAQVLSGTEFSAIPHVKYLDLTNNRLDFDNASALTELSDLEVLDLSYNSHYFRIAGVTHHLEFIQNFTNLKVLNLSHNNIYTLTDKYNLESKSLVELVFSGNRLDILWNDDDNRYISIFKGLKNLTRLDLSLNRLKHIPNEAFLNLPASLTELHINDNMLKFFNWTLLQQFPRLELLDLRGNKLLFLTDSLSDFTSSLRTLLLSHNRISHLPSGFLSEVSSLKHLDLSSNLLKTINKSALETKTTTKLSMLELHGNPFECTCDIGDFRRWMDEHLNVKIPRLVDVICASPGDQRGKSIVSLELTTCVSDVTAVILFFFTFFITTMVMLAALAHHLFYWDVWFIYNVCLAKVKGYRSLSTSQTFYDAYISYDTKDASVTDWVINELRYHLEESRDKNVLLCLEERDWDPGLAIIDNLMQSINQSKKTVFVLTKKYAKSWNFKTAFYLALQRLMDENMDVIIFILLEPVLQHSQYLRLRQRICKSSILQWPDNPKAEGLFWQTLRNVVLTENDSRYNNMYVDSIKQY
In short: as §1

human TLR9 = molecular target: T3, human TLR9 (Homo sapiens, UniProt Q9NR96); test: TLR9 inhibition reporter assay (HEK-Blue cells, SEAP reporter, ODN2006 stimulation); settings: HEK-Blue cells overexpressing human TLR9, SEAP reporter, ODN2006 5 nM
T3 construct: host or cells: HEK-Blue cells
T3 sequence (Q9NR96 26-1032): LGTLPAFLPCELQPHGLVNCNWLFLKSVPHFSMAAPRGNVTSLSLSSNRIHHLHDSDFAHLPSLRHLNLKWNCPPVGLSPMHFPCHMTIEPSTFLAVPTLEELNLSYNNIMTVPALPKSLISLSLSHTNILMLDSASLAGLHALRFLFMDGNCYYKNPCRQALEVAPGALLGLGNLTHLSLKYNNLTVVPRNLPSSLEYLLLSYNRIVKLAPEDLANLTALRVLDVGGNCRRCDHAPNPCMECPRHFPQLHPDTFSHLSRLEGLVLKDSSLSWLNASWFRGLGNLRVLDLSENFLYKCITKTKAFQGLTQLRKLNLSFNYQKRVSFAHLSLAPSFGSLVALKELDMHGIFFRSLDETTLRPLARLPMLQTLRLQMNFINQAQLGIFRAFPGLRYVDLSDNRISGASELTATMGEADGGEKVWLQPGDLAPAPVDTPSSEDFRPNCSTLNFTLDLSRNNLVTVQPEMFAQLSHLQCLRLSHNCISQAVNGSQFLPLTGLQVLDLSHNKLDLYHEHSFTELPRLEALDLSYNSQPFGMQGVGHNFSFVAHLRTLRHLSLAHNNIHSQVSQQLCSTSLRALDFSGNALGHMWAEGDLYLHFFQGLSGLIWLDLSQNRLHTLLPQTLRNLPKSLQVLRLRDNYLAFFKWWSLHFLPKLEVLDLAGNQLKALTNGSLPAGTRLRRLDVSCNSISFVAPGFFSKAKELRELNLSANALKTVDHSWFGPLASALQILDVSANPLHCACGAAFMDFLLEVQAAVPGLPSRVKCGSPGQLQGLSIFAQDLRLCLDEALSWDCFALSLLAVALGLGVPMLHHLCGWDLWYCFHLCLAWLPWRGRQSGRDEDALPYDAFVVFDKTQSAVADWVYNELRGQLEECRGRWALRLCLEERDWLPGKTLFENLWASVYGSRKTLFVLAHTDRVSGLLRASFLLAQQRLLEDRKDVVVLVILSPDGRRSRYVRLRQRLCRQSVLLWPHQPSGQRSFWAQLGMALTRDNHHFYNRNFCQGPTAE
In short: as §1

Row | Structure (SMILES) | IC50 (human TLR7) | IC50 (human TLR8) | IC50 (human TLR9)
1 | CCC(CC)N[C@H]1CC[C@@H](NC(=O)c2n[nH]c(-c3cc(C)c4ncnn4c3)c2C(C)C)CC1 [Example 100] | 78.9 nM | 114 nM | 6400 nM
2 | Cc1cc(-c2[nH]nc(-c3cncc(NC(C)C)c3)c2C(C)C)cn2ncnc12 [Example 239] | 1.96 nM | 0.27 nM | 9920 nM
3 | Cc1cc(-c2[nH]nc(C(N)=O)c2C(C)C)cn2ncnc12 [Example 29] | 18.4 nM | 1.91 nM | 216 nM
4 | Cc1cc(-c2[nH]nc(C3CCN(C(C)C)CC3)c2C(C)C)cn2ncnc12 [compound 207] | 2.92 nM | 0.31 nM | 20700 nM
5 | Cc1cc(-c2[nH]nc(C(=O)NC3CCN(CCC(F)(F)F)CC3)c2C(C)C)cn2ncnc12 [Example 169] | 4.17 nM | 17 nM | 9810 nM
6 | Cc1cc(-c2[nH]nc(C(=O)N3CCC(C(N)=O)CC3)c2C(C)C)cn2ncnc12 [Example 15] | 4.15 nM | 3.14 nM | 7810 nM
7 | Cc1cc(-c2[nH]nc(C(=O)N3CCC(CN)CC3)c2C(C)C)cn2ncnc12 [Example 61] | 22.7 nM | 5.33 nM | > 50000 nM
8 | Cc1cc(-c2[nH]nc(C(=O)N[C@H]3CC[C@@H](NCC4(C)COC4)CC3)c2C(C)C)cn2ncnc12 [Example 151] | 49.2 nM | 60 nM | 23400 nM
9 | CCN1CCC[C@H](NC(=O)c2n[nH]c(-c3cc(C)c4ncnn4c3)c2C(C)C)C1 [Example 164] | 1.32 nM | 4.43 nM | 15600 nM
10 | Cc1cc(-c2[nH]nc(-c3ccc4c(c3)CNCC4)c2C(C)C)cn2ncnc12 [Example 231] | 6.32 nM | 1.19 nM | 49500 nM
11 | Cc1cc(-c2[nH]nc(-c3cnc(C4CCNCC4)nc3)c2C(C)C)cn2ncnc12 [Example 343] | 24.1 nM | 3.3 nM | > 50000 nM
12 | CNCCN1CCC(NC(=O)c2n[nH]c(-c3cc(C)c4ncnn4c3)c2C(C)C)CC1 [Example 170] | 2.38 nM | 4.65 nM | 1760 nM

More lines, now with the values ahead:

Row | IC50 (human TLR7) | IC50 (human TLR8) | IC50 (human TLR9) | Structure (SMILES)
13 | 8.89 nM | 9.41 nM | 6790 nM | Cc1cc(-c2[nH]nc(C(=O)C(=O)NC3CCN(C(C)C)CC3)c2C(C)C)cn2ncnc12 [Example 183, 2-(4-isopropyl-5-(8-methyl-[1,2,4]triazolo[1,5-a]pyridin-6-yl)-1H-pyrazol-3-yl)-N-(1-isopropylpiperidin-4-yl)-2-oxoacetamide]
14 | 1.27 nM | 2.74 nM | 17300 nM | Cc1cc(-c2[nH]nc(C(=O)N[C@@H]3CCNC3)c2C(C)C)cn2ncnc12 [Example 50]
15 | 102 nM | 53.9 nM | > 50000 nM | COCCN1CCC(c2cnc(-c3n[nH]c(-c4cc(OC)c5ncnn5c4)c3C(C)C)cn2)CC1 [Example 396]
16 | 0.98 nM | 6.83 nM | 13200 nM | Cc1cc(-c2[nH]nc(C(=O)NC3CCC(NCC(C)(C)C)CC3)c2C(C)C)cn2ncnc12 (stereo not drawn) [Example 126]
17 | 0.45 nM | 2.42 nM | 11500 nM | CNC1CCC(NC(=O)c2n[nH]c(-c3cc(C)c4ncnn4c3)c2C(C)C)CC1 (stereo not drawn) [Example 130]
18 | 6.92 nM | 19 nM | 5810 nM | Cc1cc(-c2[nH]nc(C(=O)NC3CCN(CCCC(F)(F)F)CC3)c2C(C)C)cn2ncnc12 [Example 71]
19 | 2.25 nM | 0.27 nM | 8910 nM | Cc1cc(-c2[nH]nc(C3CCC(N(C)C(=O)CN(C)C)CC3)c2C(C)C)cn2ncnc12 (single isomer, unassigned) [compound 297]
20 | 0.71 nM | 3.44 nM | 1910 nM | Cc1cc(-c2[nH]nc(C(=O)NC3CCN(CC(C)(C)C)CC3)c2C(C)C)cn2ncnc12 [Example 74]
21 | 1.23 nM | 4.75 nM | 7220 nM | Cc1cc(-c2[nH]nc(C(=O)NC3CCN(CC4CCOC4)CC3)c2C(C)C)cn2ncnc12 (stereo not drawn) [Example 72]
22 | 7.72 nM | 31.5 nM | 28600 nM | Cc1cc(-c2[nH]nc(C(=O)NC3CCC(NC4(C)COC4)CC3)c2C(C)C)cn2ncnc12 (stereo not drawn) [Example 124]
23 | 8.31 nM | 25.5 nM | 3560 nM | Cc1cc(-c2[nH]nc(C(=O)NC3CCN(C(C)C)CC3)c2C(C)C)cn(C)c1=O [Example 39]
24 | 1.69 nM | 4.36 nM | 42800 nM | Cc1cc(-c2[nH]nc(C(=O)NCC3CN(C4COC4)CCO3)c2C(C)C)cn2ncnc12 (stereo not drawn) [Example 136]
25 | 7.97 nM | 0.42 nM | 8990 nM | CNC1CCC(c2n[nH]c(-c3cc(C)c4ncnn4c3)c2C(C)C)CC1 (single isomer, unassigned) [Example 294]
26 | 0.61 nM | 0.06 nM | 5300 nM | Cc1cc(-c2[nH]nc(C(=O)N[C@@H]3CCCN(C)C3)c2C(C)C)cn2ncnc12 [Example 160]
